{
  "source": "patent US6833262B1",
  "about": "(priority 1999, dated 2004)",
  "key": {"periodontain [1]": {"tested_on": "periodontain", "experiment": "Activation of periodontain by reducing agents and additives", "assay_type": "biochemical, Porphyromonas gingivalis", "conditions": "for Periodontain activity achieved with reducing agent: reducing agent at 0.1 mM concentration"}, "Kgp": {"target": "Kgp (Porphyromonas gingivalis, UniProt B2RLK2)", "conditions": "cited from earlier work"}, "Rgp's": {"tested_on": "Rgp's", "conditions": "cited from earlier work"}, "periodontain [2]": {"tested_on": "periodontain", "assay_type": "biochemical, Porphyromonas gingivalis"}, "[3]": {"tested_on": "human α1-proteinase inhibitor"}},
  "note": "Like-named read-outs stand apart in the source and are kept apart here. Peptide text beside a SMILES is read from it.",
  "data": [
    {"compound": "O[C@H](CS)[C@H](O)CS", "note": "(racemic) [DTT, dithiothreitol]", "values": [
      {"measurement": "Periodontain activity achieved with reducing agent", "setting": "periodontain [1]", "result": "full activity"}
    ]},
    {"compound": "CC(C)C[C@H](NC(=O)[C@H]1O[C@@H]1C(=O)O)C(=O)NCCCCN=C(N)N", "note": "(relative stereo) [E-64, L-trans-epoxysuccinyl-leucylamide-(4-guanidino)-butane]", "values": [
      {"measurement": "Inhibition of Kgp", "setting": "Kgp", "result": "not inhibited"},
      {"measurement": "Inhibition of Rgp's", "setting": "Rgp's", "result": "only weakly inhibited"},
      {"measurement": "Inhibition of periodontain (in words)", "setting": "periodontain [2]", "result": "readily inhibited"},
      {"measurement": "Percent Inhibition", "setting": "periodontain [2]; 100 µM", "result": 100, "unit": "%"}
    ]},
    {"compound": "O=c1oc(Cl)c(Cl)c2ccccc12", "note": "[Dichloroisocoumarin, 3,4 dichloroisocoumarin]", "values": [
      {"measurement": "Inhibition of periodontain (in words)", "setting": "periodontain [2]", "result": "readily inhibited"},
      {"measurement": "Percent Inhibition", "setting": "periodontain [2]", "result": 2, "unit": "%"}
    ]},
    {"compound": "NC(=O)CI", "note": "[Idoacetamide]", "values": [
      {"measurement": "Inhibition of periodontain (in words)", "setting": "periodontain [2]", "result": "readily inhibited"},
      {"measurement": "Percent Inhibition", "setting": "periodontain [2]", "result": 100, "unit": "%"}
    ]},
    {"compound": "CC(=O)N[C@@H](CC(C)C)C(=O)N[C@@H](CC(C)C)C(=O)N[C@H](C=O)CCCNC(=N)N", "note": "[Leupeptin]", "values": [
      {"measurement": "Inhibition of periodontain (in words)", "setting": "periodontain [2]", "result": "readily inhibited"},
      {"measurement": "Percent Inhibition", "setting": "periodontain [2]; 50 µM", "result": 88, "unit": "%"}
    ]},
    {"compound": "NC(N)=NCCC[C@H](NC(=O)[C@@H]1CCCN1C(=O)[C@H](N)Cc1ccccc1)C(=O)CCl", "note": "[Phe—Pro—Arg chloromethyl ketone, Phe-Pro-Arg chloromethyl ketone]", "values": [
      {"measurement": "Inhibition of periodontain (in words)", "setting": "periodontain [2]", "result": "readily inhibited"},
      {"measurement": "Percent Inhibition", "setting": "periodontain [2]; 10 µM", "result": 96, "unit": "%"}
    ]},
    {"compound": "NCCCC[C@H](NC(=O)[C@H](Cc1ccccc1)NC(=O)OCc1ccccc1)C(=O)COC(=O)c1ccccc1", "note": "[Z-Phe—Lys benzoyloxy methyl ketone, Z-Phe-Lys benzoyloxy methyl ketone]", "values": [
      {"measurement": "Inhibition of periodontain (in words)", "setting": "periodontain [2]", "result": "readily inhibited"},
      {"measurement": "Percent Inhibition", "setting": "periodontain [2]; 10 µM", "result": 99, "unit": "%"}
    ]},
    {"compound": "N[C@@H](CS)C(=O)O", "note": "[free cysteine, cysteine]", "values": [
      {"measurement": "Periodontain activity achieved with reducing agent", "setting": "periodontain [1]", "result": "full activity"}
    ]},
    {"compound": "NCC(=O)NCC(=O)O", "note": "[glycyl-glycine] (H-Gly-Gly-OH)", "values": [
      {"measurement": "Stimulation of periodontain activity", "setting": "periodontain [1]; data not shown", "result": "did not stimulate activity"}
    ]},
    {"compound": "OCCS", "note": "[β-mercaptoethanol]", "values": [
      {"measurement": "Periodontain activity achieved with reducing agent", "setting": "periodontain [1]", "result": "full activity"}
    ]},
    {"compound": "Tosyl-L-lysine chloromethyl ketone", "values": [
      {"measurement": "Inhibition of periodontain (in words)", "setting": "periodontain [2]", "result": "readily inhibited"},
      {"measurement": "Percent Inhibition", "setting": "periodontain [2]", "result": 91, "unit": "%"}
    ]},
    {"compound": "calcium ions", "values": [
      {"measurement": "Stabilizing effect on periodontain", "setting": "periodontain [1]; data not shown", "result": "did not have a stabilizing effect"}
    ]},
    {"compound": "ethylenediaminetetra-acetate [EDTA]", "values": [
      {"measurement": "Percent Inhibition", "setting": "periodontain [2]", "result": 0, "unit": "%"}
    ]},
    {"compound": "periodontain (mature native heterodimer purified from P. gingivalis HG66 culture fluid)", "values": [
      {"measurement": "Specific Activity (α1-PI inactivation assay, final TSK gel filtration step)", "setting": "[3]", "result": 368, "unit": "units/mg"},
      {"measurement": "hydrolysis of a synthetic pNA substrate", "setting": "Phe-Leu-Glu-pNA", "result": "no hydrolysis was detected"}
    ]}
  ]
}
